Measured values: ChEMBL document CHEMBL6087463, “Discovery of Novel 4,5,6,7-Tetrahydro-7H-pyrazolo[3,4-c]pyridin-7-one Derivatives as Orally Efficacious ATX Allosteric Inhibitors for the Treatment of Pulmonary Fibrosis” (J Med Chem, 2025)

Key:
Autotaxin = Autotaxin (Homo sapiens, UniProt Q13822); assay: Inhibition of human ATX using LPC16:0 as substrate preincubated with compound for 20 mins followed by substrate addition and measured after 1 hr by fluorescence based microplate analysis
[1] = target: Voltage-gated inwardly rectifying potassium channel KCNH2 (Homo sapiens, UniProt Q12809); assay: Inhibition of hERG expressed in CHO cells by automated patch-clamp assay; type: toxicity, cell-based
Chain of Voltage-gated inwardly rectifying potassium channel KCNH2 (Q12809 whole entry): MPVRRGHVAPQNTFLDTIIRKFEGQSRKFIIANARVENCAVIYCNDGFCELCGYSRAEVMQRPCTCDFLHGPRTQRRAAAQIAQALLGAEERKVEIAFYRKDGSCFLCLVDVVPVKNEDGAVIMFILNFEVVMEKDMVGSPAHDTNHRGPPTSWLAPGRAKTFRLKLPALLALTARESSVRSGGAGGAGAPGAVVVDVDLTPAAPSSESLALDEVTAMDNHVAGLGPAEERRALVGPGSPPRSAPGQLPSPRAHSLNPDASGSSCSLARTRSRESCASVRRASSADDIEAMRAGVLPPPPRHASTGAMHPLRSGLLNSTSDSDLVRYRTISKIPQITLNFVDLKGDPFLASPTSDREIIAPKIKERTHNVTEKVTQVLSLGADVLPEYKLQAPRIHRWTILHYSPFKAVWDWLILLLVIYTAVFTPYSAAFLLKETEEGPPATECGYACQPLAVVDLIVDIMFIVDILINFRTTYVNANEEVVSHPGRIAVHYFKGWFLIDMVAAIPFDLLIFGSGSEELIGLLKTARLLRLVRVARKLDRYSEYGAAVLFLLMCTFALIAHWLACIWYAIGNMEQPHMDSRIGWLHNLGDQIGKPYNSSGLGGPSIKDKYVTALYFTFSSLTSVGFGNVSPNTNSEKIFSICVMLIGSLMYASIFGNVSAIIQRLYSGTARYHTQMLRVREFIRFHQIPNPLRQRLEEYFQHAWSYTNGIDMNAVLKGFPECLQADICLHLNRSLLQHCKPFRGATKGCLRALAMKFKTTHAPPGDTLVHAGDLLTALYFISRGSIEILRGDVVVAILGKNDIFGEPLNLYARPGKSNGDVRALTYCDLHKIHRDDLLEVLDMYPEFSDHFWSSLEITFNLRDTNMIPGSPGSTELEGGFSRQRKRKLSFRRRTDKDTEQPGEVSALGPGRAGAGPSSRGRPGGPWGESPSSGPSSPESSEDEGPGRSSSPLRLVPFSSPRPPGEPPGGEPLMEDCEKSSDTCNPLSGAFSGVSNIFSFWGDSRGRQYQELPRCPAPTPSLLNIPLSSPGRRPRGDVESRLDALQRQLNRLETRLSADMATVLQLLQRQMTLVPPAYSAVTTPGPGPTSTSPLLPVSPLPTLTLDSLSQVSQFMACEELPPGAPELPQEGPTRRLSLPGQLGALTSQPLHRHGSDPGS

IC50 (Autotaxin) [µM] | SMILES | IC50 [1] [µM]
3.26 | CC(C)n1cc(-n2nc(C(=O)NN3CCCC(C(=O)O)C3)c3c2C(=O)N(c2ccccc2)CC3)cn1 (configuration not stated) | 
 | COCn1cc(-n2nc(C(=O)Nc3ccccc3C(=O)O)c3c2C(=O)N(c2ccccc2)CC3)cn1 | > 30
